The text below walks through data of patent US8778919B2, “Cyclic anilino—pyridinotriazines” (Janssen Pharmaceutica NV, priority 2005, dated 2014).

Where only a bound is given, the exact number is not on record here.

One assay relates to Chang cells. Description: GSK-3 cellular assay (C2): 14C-D-glucose incorporation into glycogen. The class given is cell-based. As to conditions: increase in D-glucose incorporation into glycogen, test concentration of 10^−6 M. Here is the method:
Test compounds were tested for their ability to increase the incorporation of ^14C-D-glucose into glycogen in living cells. To do this, Chang cells (360,000 cells/well) were cultured in 0.5 ml of MEM Rega 3 medium supplemented with 10% fetal calf serum, 1% L-glutamine and 2% sodium carbonate. After 3 days, cells were washed with 0.5 ml of phosphate-buffered saline and overlayed with 1 ml of serum- and glucose-free DMEM medium. Then, 2 μl of compound in DMSO and 50 μl substrate (3 mM glucose and 0.5 μCi ^14C-D-glucose were added and the cultures were incubated for 90 min. Cells were then extracted with 0.5 ml of 20% KOH for 60 min at 37° C. and the cell lysates were transferred to 10 ml tubes containing 300 μl of 1 mg/ml glycogen as […]. Following the addition of 2 ml ethanol, total glycogen was precipitated overnight at −20° C. and the precipitates were recovered by centrifugation. Precipitates were then resuspended in 1 ml of water and transferred to scintillation counter vials. and the amount of ^14C-D-glucose incorporation into glycogen was measured by scintillation counting. Scores for the compounds according to the invention, were obtained at a test concentration of 10^−6 M. Score 1=10-30% increase, Score 2=30-60% increase, Score 3=60-80% increase and Score 4=>80% increase in D-glucose incorporation.

The target of the next assay is GSK-3α (Homo sapiens, UniProt P49840). Description: GSK-3 kinase assay (C1), GSK-3α. The class given is biochemical. The settings on record: 1 μM ATP, read-out: C1 Score α. The essentials:
(§1)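 Radiometric SPA at room temperature in 25 mM Tris pH 7.4 with 10 mM MgCl2, 1 mM DTT, 5.7 ng/μl GSK-3β or 0.25 ng/μl GSK-3α, 5 μM biotinylated CREB peptide and 1 μM ATP plus ^33P-ATP. Stopped after 1 h; IC50 from dose-response versus no-compound control, reported as pIC50 score bands.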

For the next assay, the target named is CDK2/cyclinA (h) (Homo sapiens, UniProt P24941). Briefly: Kinase profiling C3.3 CDK2/cyclinA human. As to conditions: test concentration of 10^−6 M. The assay is classed as biochemical. The essentials:
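Human CDK2/cyclinA (5-10 mU) phosphorylates 0.1 mg/ml histone H1 in 8 mM MOPS pH 7.0, EDTA, 10 mM Mg acetate with [γ-33P]ATP, 40 min at room temperature. After phosphoric acid stop, filter-bound 33P counted by scintillation.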

A further assay concerns the target GSK-3β (Homo sapiens, UniProt P49841). Description: GSK-3 kinase assay (C1), GSK-3β. The assay is classed as biochemical. The settings on record: 1 μM ATP, read-out: C1 Score β. The essentials:
as §1

Another assay has as its target CDK7/cyclinH/MAT1 (h) (Homo sapiens, UniProt P50613). Description: Kinase profiling C3.8 CDK7/cyclinH/MAT1 human. The assay is classed as biochemical. The settings on record: CDK7/cyclinH/MAT1, test concentration of 10^−6 M. The essentials: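 Human CDK7/cyclinH/MAT1 (5-10 mU) incubated 40 min at room temperature in 8 mM MOPS pH 7.0, 0.2 mM EDTA, 10 mM Mg acetate, 500 μM peptide substrate and [γ-^33P]ATP. Stopped with phosphoric acid; substrate phosphorylation measured by filter binding and scintillation counting.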

The target in a further assay is CDK5/p35 human (Homo sapiens, UniProt Q00535). Description: Kinase profiling C3.6 CDK5/p35 human. The class given is biochemical. As to conditions: CDK5/p35, test concentration of 10^−6 M. An outline of the steps:
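Radiometric filter-binding assay: human CDK5/p35 (5-10 mU) with 0.1 mg/ml histone H1 substrate in 8 mM MOPS pH 7.0, 0.2 mM EDTA, 10 mM Mg acetate and [γ-33P]ATP. Incubated 40 min at room temperature, stopped with phosphoric acid. Substrate 33P incorporation counted on P30 filtermat by scintillation.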

Another assay addresses CDK1/cyclinB (h) (Homo sapiens, UniProt P06493). Briefly: Kinase profiling C3.2 CDK1/cyclinB human. As to conditions: test concentration of 10^−6 M. The class given is biochemical. The essentials:
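Radiometric filter-binding assay: human CDK1/cyclinB (5-10 mU) with 0.1 mg/ml histone H1 substrate and [γ-33P]ATP in 8 mM MOPS pH 7.0, 10 mM Mg acetate, 40 min at room temperature. Stopped with phosphoric acid; substrate-bound 33P counted on P30 filtermat by scintillation.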

The target in a further assay is CDK2/cyclinE (h) (Homo sapiens, UniProt P24941). Description: Kinase profiling C3.4 CDK2/cyclinE human. The class given is biochemical. As to conditions: test concentration of 10^−6 M. The essentials: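 Radiometric filter-binding assay: 5-10 mU enzyme with 0.1 mg/ml histone H1 in 8 mM MOPS pH 7.0, 0.2 mM EDTA, 10 mM Mg acetate and [γ-33P]ATP. Incubated 40 min at room temperature, stopped with phosphoric acid. Substrate-bound 33P counted on P30 filtermat.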

In another assay the target is CDK3/cyclinE (h) (Homo sapiens, UniProt Q00526). Description: Kinase profiling C3.5 CDK3/cyclinE human. The class given is biochemical. As to conditions: test concentration of 10^−6 M. The essentials: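 Human CDK3/cyclinE (5-10 mU) phosphorylated 0.1 mg/ml histone H1 in 8 mM MOPS pH 7.0, 0.2 mM EDTA and 10 mM MgAcetate with [γ-33P]ATP. Reaction ran 40 min at room temperature and was stopped with phosphoric acid. Substrate-bound radioactivity was captured on P30 filtermat and measured by scintillation counting.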

The target in another assay is CDK6/cyclinD3 human (Homo sapiens, UniProt Q00534). Description: Kinase profiling C3.7 CDK6/cyclinD3 human. The class given is biochemical. As to conditions: CDK6/cyclinD3, test concentration of 10^−6 M. The protocol:
The in vitro inhibition of a panel of kinases was assessed using either the glass-fiber filter technology as described by Davies, S. P. et al., Biochem J. (2000), 351; p. 95-105. In the glass-fiber filter technology the activity of the kinase of interest is measured using an appropriate substrate that is incubated with the aforementioned kinase protein in the presence of (^33P) radiolabeled ATP. (^33P) Phosporylation of the substrate is subsequently measured as radioactivity bound on a glassfiber-filter.
All kinases are pre-diluted to a 10× working concentration prior to addition into the assay. The composition of the dilution buffer for each kinase is detailed below.
All substrates are dissolved and diluted to working stocks in de-ionised water, apart from histone H1 that is stored in 10× working stock in 20 mM MOPS pH 7.4.
In a final reaction volume of 25 μl, CDK6/cyclinD3 human (5-10 mU) is incubated with 8 mM MOPS pH 7.0, 0.2 mM EDTA, 0.1 mg/ml histone H1, 10 mM MgAcetate and [γ-^33P-ATP] (specific activity approx. 500 cpm/pmol, concentration as required). The reaction is initiated by the addition of the MgATP mix. After incubation for 40 minutes at room temperature, the reaction is stopped by the addition of 5 μl of a 3% phosphoric acid solution. 10 μl of the reaction is then spotted onto a P30 filtermat and washed three times for 5 minutes in 75 mM phosphoric acid and once in methanol prior to drying and scintillation counting.

Sequence of CDK5/p35 human (Q00535 whole entry): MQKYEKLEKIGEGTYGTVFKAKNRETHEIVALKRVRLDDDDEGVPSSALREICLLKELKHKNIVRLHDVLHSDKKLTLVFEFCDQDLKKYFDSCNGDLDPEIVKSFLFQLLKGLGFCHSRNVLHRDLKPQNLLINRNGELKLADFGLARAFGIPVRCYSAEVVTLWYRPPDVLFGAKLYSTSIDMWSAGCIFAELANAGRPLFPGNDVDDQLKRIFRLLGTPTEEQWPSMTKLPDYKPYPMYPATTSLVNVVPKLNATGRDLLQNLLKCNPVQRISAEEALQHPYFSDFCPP
Sequence of CDK5/p35 human (Q15078 whole entry partner): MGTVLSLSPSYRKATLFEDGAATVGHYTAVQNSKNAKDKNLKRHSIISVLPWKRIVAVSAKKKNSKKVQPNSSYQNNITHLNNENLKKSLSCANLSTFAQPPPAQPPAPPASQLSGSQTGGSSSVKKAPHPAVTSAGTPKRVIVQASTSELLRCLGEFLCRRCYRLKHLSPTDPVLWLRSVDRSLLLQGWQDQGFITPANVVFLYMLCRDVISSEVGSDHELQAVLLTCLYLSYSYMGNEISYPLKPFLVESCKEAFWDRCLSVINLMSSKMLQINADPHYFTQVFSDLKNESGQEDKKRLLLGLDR
Sequence of GSK-3α (P49840 whole entry, species assumed): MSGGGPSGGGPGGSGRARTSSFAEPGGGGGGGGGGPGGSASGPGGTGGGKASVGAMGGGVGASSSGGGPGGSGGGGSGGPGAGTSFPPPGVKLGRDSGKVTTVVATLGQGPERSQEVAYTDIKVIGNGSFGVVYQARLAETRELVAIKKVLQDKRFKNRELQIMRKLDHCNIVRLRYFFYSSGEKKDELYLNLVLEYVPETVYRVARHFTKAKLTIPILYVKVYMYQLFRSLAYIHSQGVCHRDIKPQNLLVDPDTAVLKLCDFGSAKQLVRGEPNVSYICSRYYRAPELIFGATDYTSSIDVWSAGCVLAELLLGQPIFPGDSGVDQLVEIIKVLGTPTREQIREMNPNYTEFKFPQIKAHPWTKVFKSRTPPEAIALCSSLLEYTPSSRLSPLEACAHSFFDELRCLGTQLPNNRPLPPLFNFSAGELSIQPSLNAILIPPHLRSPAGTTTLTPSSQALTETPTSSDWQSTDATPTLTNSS
Sequence of CDK1/cyclinB (h) (P06493 whole entry): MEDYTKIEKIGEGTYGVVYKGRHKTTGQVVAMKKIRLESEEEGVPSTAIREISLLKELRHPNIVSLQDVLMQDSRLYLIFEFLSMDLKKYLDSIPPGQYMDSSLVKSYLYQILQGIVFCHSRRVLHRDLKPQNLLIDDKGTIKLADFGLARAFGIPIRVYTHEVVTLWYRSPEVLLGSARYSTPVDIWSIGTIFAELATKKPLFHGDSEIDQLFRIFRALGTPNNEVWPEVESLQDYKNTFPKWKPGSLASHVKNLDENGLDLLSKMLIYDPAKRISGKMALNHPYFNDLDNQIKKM
Sequence of CDK1/cyclinB (h) (P14635 whole entry partner): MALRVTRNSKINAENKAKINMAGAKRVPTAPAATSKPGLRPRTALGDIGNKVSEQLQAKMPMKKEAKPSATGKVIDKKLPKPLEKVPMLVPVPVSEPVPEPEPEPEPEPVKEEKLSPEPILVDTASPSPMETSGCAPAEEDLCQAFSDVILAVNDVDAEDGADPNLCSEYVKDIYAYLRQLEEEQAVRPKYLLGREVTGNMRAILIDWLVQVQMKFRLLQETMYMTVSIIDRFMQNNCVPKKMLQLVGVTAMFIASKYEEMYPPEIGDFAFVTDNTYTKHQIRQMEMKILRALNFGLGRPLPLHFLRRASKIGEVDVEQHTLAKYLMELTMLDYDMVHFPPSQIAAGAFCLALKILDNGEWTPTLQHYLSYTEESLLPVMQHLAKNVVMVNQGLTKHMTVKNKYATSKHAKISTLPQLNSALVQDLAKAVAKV
Sequence of CDK7/cyclinH/MAT1 (h) (P50613 whole entry): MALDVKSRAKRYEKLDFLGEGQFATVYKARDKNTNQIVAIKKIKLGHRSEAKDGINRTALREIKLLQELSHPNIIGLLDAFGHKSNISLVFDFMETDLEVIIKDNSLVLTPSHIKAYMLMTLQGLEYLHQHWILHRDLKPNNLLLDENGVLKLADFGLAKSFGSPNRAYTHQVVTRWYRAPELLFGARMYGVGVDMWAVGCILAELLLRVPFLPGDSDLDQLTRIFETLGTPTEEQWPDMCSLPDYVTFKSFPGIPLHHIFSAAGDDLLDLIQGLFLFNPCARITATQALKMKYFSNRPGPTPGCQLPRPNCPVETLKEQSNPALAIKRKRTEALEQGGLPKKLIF
Sequence of CDK7/cyclinH/MAT1 (h) (P51946 whole entry partner): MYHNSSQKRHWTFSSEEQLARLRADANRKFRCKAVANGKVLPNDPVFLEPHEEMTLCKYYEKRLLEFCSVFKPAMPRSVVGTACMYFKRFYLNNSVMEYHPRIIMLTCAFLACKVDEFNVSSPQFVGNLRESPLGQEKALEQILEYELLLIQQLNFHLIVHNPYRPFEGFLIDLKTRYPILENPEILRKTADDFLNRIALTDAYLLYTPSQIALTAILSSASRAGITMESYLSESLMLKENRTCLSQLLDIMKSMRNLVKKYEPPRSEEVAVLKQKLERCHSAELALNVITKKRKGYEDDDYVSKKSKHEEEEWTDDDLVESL
Sequence of CDK7/cyclinH/MAT1 (h) (P51948 whole entry partner): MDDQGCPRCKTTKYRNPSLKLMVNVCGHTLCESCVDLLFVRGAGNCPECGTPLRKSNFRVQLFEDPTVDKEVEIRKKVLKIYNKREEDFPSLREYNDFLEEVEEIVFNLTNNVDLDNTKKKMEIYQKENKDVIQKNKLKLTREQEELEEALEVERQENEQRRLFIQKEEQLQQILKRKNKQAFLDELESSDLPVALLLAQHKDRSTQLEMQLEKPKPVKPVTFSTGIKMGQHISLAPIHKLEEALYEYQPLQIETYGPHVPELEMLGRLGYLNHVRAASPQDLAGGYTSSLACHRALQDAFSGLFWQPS
Sequence of GSK-3β (P49841 whole entry, species assumed): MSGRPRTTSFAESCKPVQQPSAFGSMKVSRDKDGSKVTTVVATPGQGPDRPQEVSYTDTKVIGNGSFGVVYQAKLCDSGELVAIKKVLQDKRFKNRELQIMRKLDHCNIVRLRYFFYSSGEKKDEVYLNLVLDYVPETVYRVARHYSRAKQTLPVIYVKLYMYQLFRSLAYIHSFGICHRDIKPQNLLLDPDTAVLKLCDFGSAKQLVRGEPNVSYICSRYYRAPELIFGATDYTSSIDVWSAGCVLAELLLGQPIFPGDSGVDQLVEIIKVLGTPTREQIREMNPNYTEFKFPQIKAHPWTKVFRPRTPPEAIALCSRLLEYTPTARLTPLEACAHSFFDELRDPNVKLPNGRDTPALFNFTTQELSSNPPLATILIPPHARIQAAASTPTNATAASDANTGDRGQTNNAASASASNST
Sequence of CDK6/cyclinD3 human (Q00534 whole entry): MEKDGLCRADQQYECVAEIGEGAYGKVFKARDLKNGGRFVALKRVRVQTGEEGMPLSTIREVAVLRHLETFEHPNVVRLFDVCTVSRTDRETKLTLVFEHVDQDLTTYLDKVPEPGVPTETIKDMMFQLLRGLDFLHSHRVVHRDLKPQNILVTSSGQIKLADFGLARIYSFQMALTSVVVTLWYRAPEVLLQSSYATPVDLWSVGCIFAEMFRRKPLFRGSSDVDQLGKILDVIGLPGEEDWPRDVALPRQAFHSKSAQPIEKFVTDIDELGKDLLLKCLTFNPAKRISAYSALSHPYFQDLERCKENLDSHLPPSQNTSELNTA
Sequence of CDK6/cyclinD3 human (P30281 whole entry partner): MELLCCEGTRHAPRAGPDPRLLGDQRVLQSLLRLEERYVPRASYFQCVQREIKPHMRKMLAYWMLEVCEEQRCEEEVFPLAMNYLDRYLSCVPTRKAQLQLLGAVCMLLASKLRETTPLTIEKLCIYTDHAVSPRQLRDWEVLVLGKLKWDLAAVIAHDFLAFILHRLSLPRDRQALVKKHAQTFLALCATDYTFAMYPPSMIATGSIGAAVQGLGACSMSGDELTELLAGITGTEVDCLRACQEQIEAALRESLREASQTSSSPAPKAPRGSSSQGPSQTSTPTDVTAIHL

Take `CN1CCCc2cc(ccc2F)-c2ncnc(n2)Nc2cccc(c2)CNC(=O)C1` [Compound 70]: in the assay on Chang cells, the “C2 Score” value was 4 (Score 4=>80% increase in D-glucose incorporation). For the same compound, on GSK-3α, the IC50 is below 10 nM.

`CC(C)N1CC(=O)NCCCc2cc(ccn2)-c2ncnc(n2)Nc2cccc(c2)C1` [Compound 65]: in the assay on Chang cells, the “C2 Score” value is recorded as 3 (Score 3=60-80% increase). The IC50 on GSK-3α is below 10 nM. Moreover, the C3.3 score on CDK2/cyclinA (h) is 2 (Score 2 = 30-60% inhibition).

As to `CN1CC(=O)NCCNc2cc(ccn2)-c2ncnc(n2)Nc2cccc(c2)C1` [Compound 4], the IC50 at GSK-3β and on GSK-3α was 10 to 100 nM throughout. Moreover, the “C2 Score” value in the assay on Chang cells is given as 4 (Score 4=>80% increase in D-glucose incorporation).

Consider `CN1CC(=O)NCCCNc2cc(ccn2)-c2ncnc(n2)Nc2cccc(c2)C1` [Compound 5], for which the IC50 at GSK-3β and at GSK-3α was 10 to 100 nM in each case. The “C2 Score” value in the assay with Chang cells is recorded as 4 (Score 4=>80% increase in D-glucose incorporation).

Consider `CN1CC(=O)N(C)CCCc2cc(ccn2)-c2ncnc(n2)Nc2cccc(c2)C1` [Compound 67], for which, in the assay with Chang cells, the “C2 Score” value is listed as 4 (Score 4=>80% increase in D-glucose incorporation). Moreover, the IC50 on GSK-3α was below 10 nM.

In the case of `O=C1CN2CCN(CC2)Cc2cccc(c2)Nc2ncnc(n2)-c2cccc(c2)CCCN1` [Compound 52], the C3.8 score at CDK7/cyclinH/MAT1 (h) is recorded as 1 (Score 1 = 10-30% inhibition). Moreover, the C3.6 score at CDK5/p35 human is reported as 3 (Score 3 = 60-80% inhibition). Further, the C3.2 score at CDK1/cyclinB (h) is on record as 4 (Score 4 = >80% inhibition). The “C2 Score” value with Chang cells is given as 4 (Score 4=>80% increase in D-glucose incorporation). In addition, on GSK-3α, the IC50 is below 10 nM. Also, at CDK2/cyclinA (h), the C3.3 score is given as 4 (Score 4 = >80% inhibition). In addition, at CDK2/cyclinE (h), the C3.4 score is reported as 4 (Score 4 = >80% inhibition). Besides, the C3.5 score at CDK3/cyclinE (h) is 2 (Score 2 = 30-60% inhibition).

Take `O=C1CN2CCN(CC2)Cc2cccc(c2)Nc2ncnc(n2)-c2cncc(c2)CCCN1` [Compound 84]: the C3.8 score on CDK7/cyclinH/MAT1 (h) was 1 (Score 1 = 10-30% inhibition). At CDK5/p35 human, the C3.6 score is on record as 2 (Score 2 = 30-60% inhibition). For the same compound, at CDK1/cyclinB (h), the C3.2 score was 3 (Score 3 = 60-80% inhibition). Further, the “C2 Score” value in the assay on Chang cells is 3 (Score 3=60-80% increase). Also, the IC50 on GSK-3α is below 10 nM. In addition, at CDK2/cyclinA (h), the C3.3 score is given as 2 (Score 2 = 30-60% inhibition). The C3.4 score on CDK2/cyclinE (h) was 3 (Score 3 = 60-80% inhibition). Moreover, the C3.5 score at CDK3/cyclinE (h) is on record as 2 (Score 2 = 30-60% inhibition).

Regarding `O=C1NCCc2cccc(c2)Nc2ncnc(n2)-c2ccnc(c2)CCCN2C[C@H](O)C[C@@H]12` [Compound 25], on CDK7/cyclinH/MAT1 (h), the C3.8 score is given as 2 (Score 2 = 30-60% inhibition). For the same compound, the IC50 on GSK-3β and at GSK-3α was 10 to 100 nM each time. The C3.6 score on CDK5/p35 human is 2 (Score 2 = 30-60% inhibition). Moreover, on CDK1/cyclinB (h), the C3.2 score is reported as 3 (Score 3 = 60-80% inhibition). Moreover, the C3.3 score at CDK2/cyclinA (h) is 4 (Score 4 = >80% inhibition). Besides, on CDK2/cyclinE (h), the C3.4 score was 4 (Score 4 = >80% inhibition). Also, the C3.5 score on CDK3/cyclinE (h) is 3 (Score 3 = 60-80% inhibition). The C3.7 score on CDK6/cyclinD3 human is 2 (Score 2 = 30-60% inhibition).
